For test [1], the system named is Enterococcus faecium CAY09—2 (VRE). In words: MIC determination, standard method of the Chemotherapy Society of Japan. Type of test: cell-based. The source says: (§1) The minimal inhibitory concentration (MIC) of the compounds of the invention obtained in Example 1, QN3323A, QN3323-B, QN3323-Y1, thiocillin I, thiocillin II and micrococcin P2 against Staphylococcus aureus FDA209P (S. aureus), Staphylococcus epidermidis IID866 (S. epidezmidis), Enterococcus faecalis IID682 (E. Faecalis) and Enterococcus faecium CAY09—1 (E. faecium), as well as against drug-resistant bacteria, Staphylococcus aureus CAY32001 (MRSA) (S. aureus (MRSA)) and Enterococcus faecium CAY09—2 (VRE) (E. faecium (VRE)) was measured according to the standard method of the Chemotherapy Society of Japan (CHEMOTHERAPY, 1981, 29(1):76, revised minimal inhibitory concentration (MIC) determination method). The cells of S. aureus (MRSA) were incubated at 32° C.

The subject of test [2] is Staphylococcus aureus CAY32001 (MRSA). The test is described as above. Format: cell-based.
From the text: as §1

Test [3] deals with Staphylococcus aureus FDA209P. Described as above. Format: cell-based.
From the text: as §1

Test [4] concerns Enterococcus faecium CAY09—1. The test is described as above. Format: cell-based.
From the text: as §1

Test [5] relates to Staphylococcus epidermidis IID866. The test is described as above. Type of test: cell-based.
From the text: as §1

The test system of test [6] is Enterococcus faecalis IID682. Described as above. Format: cell-based.
From the text: as §1

Test [7] has as its system Staphylococcus aureus Smith. In words: Remedial effect for infected mouse model. Format: in vivo. The following applies: male ICR(CD-1) mice infected intraabdominally with S. aureus Smith; compound subcutaneous two hours after infection; observed 4 to 7 days after treatment; probit method. The method, then:
Remedial Effect for Infected Mouse Model
The compounds of the invention, QN3323-A, QN3323-B, thiocillin I and thiocillin II were tested using an infected mouse model to determine the effectivness thereof. Concretely, cells of Staphylococcus aureus Smith cultivated for 16 hours at 37° C. were suspended in 3% butamutin (by Tokyo Kasei), and the resulting cell suspension was intraabdominally infected into 4-week old male ICR(CD-1) mice (from Charles River of Japan, SPF) (about 3×10^6 CFU/mouse). Two hours after the infection, the compound of the invention dissolved in a solvent (10% DMSO, 10% HCO-60 (by Nikko Chemicals), 80% physiological saline), was subcutaneously administered to each mouse. On 4 to 7 days after the treatment, the mice were observed, and their ED50 value was calculated according to probit method.

The mark [8] stands for this setting: S. aureus CAY32001 (MRSA), incubated at 32° C.

Each structure is given as a SMILES string. Values after ≈ are worked out from the molar mass of the structure shown.

This note sets out measurements from patent US7030085B2, “Thiopeptide compounds” (Astellas Pharma INC, priority 2001, dated 2006).

The MIC is the lowest concentration found to suppress growth. Lower therefore signals greater potency. Regarding `C/C=C(\NC(=O)c1csc(-c2csc(-c3ccc4c(n3)-c3csc(n3)[C@H]([C@@H](C)O)NC(=O)c3csc(n3)[C@H](C(C)C)NC(=O)c3csc(n3)/C(=C/C)NC(=O)[C@H]([C@@H](C)O)NC(=O)c3csc-4n3)n2)n1)C(=O)NCC(C)=O` [Micrococcin P2, micrococcin P2], the values for the MIC in test [1] (E. faecium CAY09—2 (VRE)) and in test [2] (setting [8]) were 0.2 µg/mL (≈ 0.175 µM) and 0.78 µg/mL (≈ 0.683 µM), respectively.
Take `C/C=C(\NC(=O)c1csc(-c2csc(-c3ccc4c(n3)-c3csc(n3)C(C(C)O)NC(=O)c3csc(n3)C(C(C)(C)O)NC(=O)c3csc(n3)/C(=C\C)NC(=O)C(C(C)O)NC(=O)c3csc-4n3)n2)n1)C(=O)NCC(C)O` (centres unmarked) [QN3323-Y1]: the MIC stood at 0.25 µg/mL (≈ 0.215 µM) in test [3]; 0.5 µg/mL (≈ 0.431 µM) in test [4]; 0.25 µg/mL (≈ 0.215 µM) in test [1] (Enterococcus faecium, VRE); 0.25 µg/mL (≈ 0.215 µM) in test [5]; 2 µg/mL (≈ 1.72 µM) in test [2] (Staphylococcus aureus, MRSA); 0.5 µg/mL (≈ 0.431 µM) in test [6].
`C/C=C(\NC(=O)c1csc(-c2csc(-c3ccc4c(n3)-c3csc(n3)[C@H]([C@@H](C)O)NC(=O)c3csc(n3)[C@H](C(C)(C)O)NC(=O)c3csc(n3)/C(=C/C)NC(=O)[C@H]([C@@H](C)O)NC(=O)c3csc-4n3)n2)n1)C(=O)NC[C@@H](C)O` [Thiocillin I, thiocillin I]: the MIC in test [1] (E. faecium CAY09—2 (VRE)) and in test [2] (setting [8]) was 0.78 µg/mL (≈ 0.672 µM) throughout. In test [7], this molecule gave an ED5O of 1.4 mg/kg.
For the molecule `C/C=C(/NC(=O)c1csc(-c2csc(-c3ccc4c(n3)-c3csc(n3)C(C(C)OC)NC(=O)c3csc(n3)C(C(C)(C)O)NC(=O)c3csc(n3)/C(=C\C)NC(=O)C(C(C)O)NC(=O)c3csc-4n3)n2)n1)C(=O)NCC(C)O` (centres unmarked) [Thiocillin II, thiocillin II], the MIC in test [1] (E. faecium CAY09—2 (VRE)) worked out at 0.05 µg/mL (≈ 0.0426 µM); in test [2] (setting [8]), 0.10 µg/mL (≈ 0.0851 µM). This molecule displayed an ED5O in test [7] of 2.2 mg/kg.
